Blank lines part the entries; values can stand above or below the compound they belong to. Peptide text beside a SMILES is read from it.
Columns and labels:
[1] = Inhibition of N-terminal 6 His-tagged HHV6 protease P12A mutant (2 to 230 residues) expressed in Escherichia coli BL21 cells using 5FAM-KPSILNASLTPETVKK as peptide substrate incubated for 3 hrs by fluorescence based analysis; parameters: species or system Human betaherpesvirus 6
[2] = Inhibition of amino terminal GST tagged HCMV protease P12A mutant (1 to 256 residues) expressed in Escherichia coli BL21 (DE3) cells using 5-carboxyfluorescein [FAM]-RGVVNASSRLAK as peptide substrate incubated for 3 hrs by fluorescence based analysis; parameters: species or system Human betaherpesvirus 5
[3] = system: Human betaherpesvirus 5; test: Antiviral activity against HCMV infected in HFF cells assessed as reduction in viral replication; type: functional, organism-based; details: Human betaherpesvirus 5, HFF
[4] = Inhibition of N-terminal 6 His-tagged HHV6 protease (2 to 230 residues) expressed in Escherichia coli BL21 cells using 5FAM-KPSILNASLTPETVKK as peptide substrate incubated for 3 hrs by fluorescence based analysis; parameters: species or system Human betaherpesvirus 6
[5] = Cytotoxicity against HFF cells assessed as inhibition in cell viability incubated for 5 days by luminescence based analysis; type: toxicity; details: human, time 5 day
[6] = Inhibition of amino terminal GST tagged HCMV protease (1 to 256 residues) expressed in Escherichia coli BL21 (DE3) cells using 5-carboxyfluorescein [FAM]-RGVVNASSRLAK as peptide substrate incubated for 3 hrs by fluorescence based analysis; parameters: species or system Human betaherpesvirus 5
[7] = Apparent permeability across apical to basolateral side in LLC-PK1 cells at 2 uM incubated for 2 hrs by LC/MS/MS method; type: ADME, cell-based, Sus scrofa; details: pig
[8] = Inhibition of N-terminal 6 His-tagged HHV6 protease F10A mutant (2 to 230 residues) expressed in Escherichia coli BL21 cells using 5FAM-KPSILNASLTPETVKK as peptide substrate incubated for 3 hrs by fluorescence based analysis; parameters: species or system Human betaherpesvirus 6
[9] = Inhibition of amino terminal GST tagged HCMV protease F10A mutant (1 to 256 residues) expressed in Escherichia coli BL21 (DE3) cells using 5-carboxyfluorescein [FAM]-RGVVNASSRLAK as peptide substrate incubated for 3 hrs by fluorescence based analysis; parameters: species or system Human betaherpesvirus 5
[10] = Inhibition of amino terminal GST tagged HCMV protease L11A mutant (1 to 256 residues) expressed in Escherichia coli BL21 (DE3) cells using 5-carboxyfluorescein [FAM]-RGVVNASSRLAK as peptide substrate incubated for 3 hrs by fluorescence based analysis; parameters: species or system Human betaherpesvirus 5
[11] = Inhibition of N-terminal 6 His-tagged HHV6 protease L11A mutant (2 to 230 residues) expressed in Escherichia coli BL21 cells using 5FAM-KPSILNASLTPETVKK as peptide substrate incubated for 3 hrs by fluorescence based analysis; parameters: species or system Human betaherpesvirus 6

SMILES: CC[C@H](C)[C@H](NC(=O)[C@H](Cc1ccccc1)NC(C)=O)C(=O)N[C@H](C(=O)NCC(=O)N[C@@H](Cc1c[nH]cn1)C(=O)N[C@@H](Cc1ccc(O)cc1)C(=O)N[C@@H](Cc1c[nH]c2ccccc12)C(=O)N[C@H](C(=O)N[C@@H](CCCNC(=N)N)C(=O)N[C@@H](Cc1ccccc1)C(=O)N[C@@H](CC(C)C)C(=O)N[C@@H](C)C(=O)N[C@@H](CS)C(=O)NCC(N)=O)C(C)C)[C@@H](C)O (Ac-FITGHYWVRFLACG-NH2)
IC50 [1]: < 76 nM
IC50 [2]: < 76 nM

EC50 [3]: 60 µM
IC50 [4]: 330 nM
IC50 [6]: 2500 nM
Papp A→B at 2 h, 2 µM [7]: 1.3 ×10⁻⁶ cm/s
SMILES: Cc1ccc([C@@H](c2cn(C3CCCC3)nc2-c2ccccc2C)n2cccc(N3C[C@H](C(=O)NC45CCC(CC4)NC5=O)N(C)C3=O)c2=O)cc1
CC50 at 120 h [5]: 51 µM

SMILES: CC[C@H](C)[C@H](NC(=O)[C@H](Cc1ccccc1)NC(C)=O)C(=O)N[C@H](C(=O)NCC(=O)N[C@@H](Cc1c[nH]cn1)C(=O)N[C@@H](Cc1ccc(O)cc1)C(=O)N[C@@H](Cc1c[nH]c2ccccc12)C(=O)N[C@H](C(=O)N[C@@H](CCCNC(=N)N)C(=O)N[C@@H](C)C(=O)N[C@@H](CC(C)C)C(=O)N1CCC[C@H]1C(=O)N[C@@H](CS)C(=O)NCC(N)=O)C(C)C)[C@@H](C)O (Ac-FITGHYWVRALPCG-NH2)
IC50 [8]: < 76 nM
IC50 [9]: < 76 nM

SMILES: CC[C@H](C)[C@H](NC(=O)[C@H](Cc1ccccc1)NC(C)=O)C(=O)N[C@H](C(=O)NCC(=O)N[C@@H](Cc1c[nH]cn1)C(=O)N[C@@H](Cc1ccc(O)cc1)C(=O)N[C@@H](Cc1c[nH]c2ccccc12)C(=O)N[C@H](C(=O)N[C@@H](CCCNC(=N)N)C(=O)N[C@@H](Cc1ccccc1)C(=O)N[C@@H](C)C(=O)N1CCC[C@H]1C(=O)N[C@@H](CS)C(=O)NCC(N)=O)C(C)C)[C@@H](C)O (Ac-FITGHYWVRFAPCG-NH2)
IC50 [10]: < 76 nM
IC50 [11]: < 76 nM

Reference: ChEMBL document CHEMBL5370683, “Peptide-to-Small Molecule: Discovery of Non-Covalent, Active-Site Inhibitors of β-Herpesvirus Proteases” (ACS Med Chem Lett, 2023)
